# According to patent publication US12059413B2, “Methods of inhibiting viruses using compositions targeting TSG101-ubiquitin interaction” (The Research Foundation for the State University of New York, priority 2016, dated 2024):
# Assays:
# Hela cells = assay: Metabolic activity, WST-1 assay, Hela cells; assay type: cell-based; settings: Homo sapiens, 24 hr in N16, WST-1, read-out: IC50 (95% confidence levels), metabolic activity
# Experimental: (§1) FIG. 20A-C. N16 inhibition is virus-specific. A) N16 IC50 for Hela and 293T cells. […] Values were calculated by measuring metabolic activity (WST-1 Assay, Roche Applied Science) after cells were grown for 24 hr in N16. Data points represent the mean of 2 assays, 3 time points each for each cell line. […] Values in the absence or presence of N16 (50 uM) were 12% and 13%, respectively). C) N16 effect on EGF-stimulated EFGR degradation. Cells maintained for 24 hr in media containing DMSO alone or DMSO and N16 were stimulated with EGF ligand for a 90 min period and then assessed for EGFR steady-state level by Western analysis. EGFR levels for unstimulated and stimulated sample pairs are shown. A) n=2; B) n=2; C) n=2.
# (§2) Cells were grown in 96-well trays for 24 hr with increasing levels of drug, metabolic activity was measured using WST-1colorimetric assay (Roche), and IC50 values were calculated (Prism 6, Graph Pad Software Inc.).
# 293T cells = assay: Metabolic activity, WST-1 assay, 293T cells; assay type: cell-based; settings: Homo sapiens, HEK-293T; 293T, 24 hr in N16, WST-1; read-out: IC50 (95% confidence levels), metabolic activity
# Experimental: as §1
# FIG. 27A-C. Effect of N-Acetyl Cysteine (NAC) on N16-mediated inhibition of VLP production and intracellular Gag accumulation. […] A concentration of 3 mM NAC was therefore used to test the effect of the antioxidative reagent on the N16 inhibitory effect. N16 (0, 12, 25, 50, 75, and 100 uM) was added 8.5 hr prior to transfection with pNL4-3ΔEnv. Cells were harvested 16 hr later. […] C) Quantitative analysis. n=2.
# as §2
# EGFR = assay: EGF-stimulated EGFR degradation, Western analysis; assay type: cell-based; settings: concentrations well above 50 JAM
# Experimental: as §1
# We investigated the specificity of the inhibitory effect. F15 and N16 impaired Tsg101-co-localization with Gag on the plasma membrane (c.f, FIG. 19) and reduced release of the VLPs assembled by Gag (c.f, FIG. 15). […] Cell metabolic activity was not affected after exposure to N16 for 24 hr; it decreased by less than 10% after exposure to N16 for 48 hr (not shown). Tsg101 localization to the midbody of dividing cells requires its recruitment to that location by centrosomal protein of 55k (CEP55) which binds a site in the Tsg101 Pro-rich domain (aa 154-166) (Lee, H. H., et al. (2008)). […]
# Plasma level in humans = assay type: in vivo, human; settings: equivalent of the plasma level
# Source text: Targeting of the Gag-Tsg101 interaction for inhibition of HIV budding has been an active field over the last fifteen years, mostly focusing on interference with PTAP binding (Tavassoli, A. et al. (2008); Chen, H., et al. (2010); Kim, S. E. et al. (2011); Lu, J. et al. (2014)). Theoretically, a synthetic peptide that mimics the PTAP motif could compete for the PTAP binding pocket of Tsg101 in cells. […]; Liu, F. et al. (2008)). Although high-resolution structures for the highest affinity complexes have not yet been elucidated, docking studies indicate that these PTAP inhibitors bind to the hydrophobic surface of Tsg101 around residue T56 (Kim, S. E. et al. (2011)). […]. […] Indeed, the dose of N16 provided is 40 milligrams. Seven microgram/ml is achieved in human plasma (Hunt, R. H. et al. (2005)), a level that is equivalent to a 20 micromolar concentration of the drug. The lowest concentration that we achieved in tissue culture assays when N16 was provided under the optimal conditions described in the text (c.f FIG. 15) was 25-50 micromolar. The current availability of the F15/N16 compounds in diverse long-acting slow-release formulations is another feature adaptable to further refined development of the F15/N16 compounds that could address issues pertaining to drug regimen adherence. […]
smiles,measurement,setting,value
"COc1ccc2[nH]c([S+]([O-])Cc3ncc(C)c(OC)c3C)nc2n1 (stereo not shown) [N16, tenatoprazole]",IC50,Hela cells,156 to 205 µM
same,IC50,293T cells,99.8 to 139 µM
same,EGFR down-regulation function,EGFR,unimpaired
same,"plasma level, equivalent concentration",Plasma level in humans,20 µM
